In patent US8673919B2, “Dihydropyridin sulfonamides and dihydropyridin sulfamides as MEK inhibitors” (Ardea Biosciences, Inc., priority 2009, dated 2014):

Columns and labels:
A375 cells = experiment: A375 Crystal Violet (CV) Proliferation Assay; type: cell-based; settings: A375 human melanoma cells, mutant BRAF V600E, crystal violet staining, 4 days
Protocol: Cell proliferation for A375 cells [human melanoma cell line, expressing mutant BRAF V600E] was measured by crystal violet (CV) staining: Cultivated human A375 cells were plated out in a density of 1500 cells/measurement point in 200 μl of growth medium (DMEM/HAMS F12 with 10% FBS and 2 mM Glutamine) in a 96-well multititer plate. After 24 hours, the cells from a plate (zero plate) were stained with crystal violet (see below), while the medium in the other plates was replaced by fresh culture medium (200 μl) to which the test substances had been added in various concentrations (0 μM, and in the range 0.3 nM-30 μM; the final concentration of the solvent dimethyl sulphoxide was 0.5%). The cells were incubated in the presence of the test substances for 4 days. The cell proliferation was determined by staining the cells with crystal violet: the cells were fixed by adding 20 μl/measurement point of an 11% glutaraldehyde solution at room temperature for 15 min. After the fixed cells had been washed three times with water, the plates were dried at room temperature. The cells were stained by adding 100 μl/measurement point of a 0.1% crystal violet solution (pH adjusted to pH 3 by adding acetic acid). After the stained cells had been washed three times with water, the plates were dried at room temperature. The dye was dissolved by adding 100 μl/measurement point of a 10% acetic acid solution, and the extinction was determined by photometry at a wavelength of 595 nm. The percentage change in cell growth was calculated by normalizing the measurements to the extinctions of the zero point plate (=0%) and the extinction of the untreated (0 μM) cells (=100%). The IC50 values were determined by means of a 4-parameter fit using the company's own software.

MEK1 = biological target: T1, MEK1 (Homo sapiens, UniProt Q02750); experiment: MEK1 Activation Kinase Assay (HTRF; Cot1 phosphorylation of GST-MEK1); type: biochemical; settings: activation of GST-MEK1 by Cot1, HTRF, 10 min pre-incubation, 20 min reaction at 22° C.
T1 construct: purchased Millipore 14-420
From the text: The kinase Cot1 activates MEK1 by phosphorylating its activation loop. The inhibitory activity of compounds of the present invention on this activation of MEK1 was quantified employing the HTRF assay described in the following paragraphs.
N-terminally His6-tagged recombinant kinase domain of the human Cot1 (amino acids 30-397, purchased from Millipore, cat. no 14-703) expressed in insect cells (SF21) and purified by Ni-NTA affinity chromatography was used as kinase. As substrate for the kinase reaction the unactive C-terminally His6-tagged GST-MEK1 fusion protein (Millipore cat. no 14-420) was used.
For the assay 50 nl of a 100 fold concentrated solution of the test compound in DMSO was pipetted into a black low volume 384 well microtiter plate (Greiner Bio-One, Frickenhausen, Germany), 3 μl of a solution of 24 nM GST-MEK1 and 166.7 μM adenosine-tri-phosphate (ATP) in assay buffer [50 mM Tris/HCl pH 7.5, 10 mM MgCl2, 2 mM dithiothreitol, 0.01% (v/v) Igepal CA 630 (Sigma), 5 mM β-phospho-glycerol] were added and the mixture was incubated for 10 min at 22° C. to allow pre-binding of the test compounds to the GST-MEK1 before the start of the kinase reaction. Then the kinase reaction was started by the addition of 2 μl of a solution of Cot1 in assay buffer and the resulting mixture was incubated for a reaction time of 20 min at 22° C. The concentration of Cot1 in the assay was adjusted depending of the activity of the enzyme lot and was chosen appropriate to have the assay in the linear range, typical enzyme concentrations were in the range of about 2 ng/μl (final conc. in the 5 μl assay volume). The reaction was stopped by the addition of 5 μl of a solution of HTRF detection reagents (13 nM anti GST-XL665 [#61 GSTXLB, Fa. Cis Biointernational, Marcoule, France], 1 nM Eu-cryptate labelled anti-phospho-MEK 1/2 (Ser217/221) [#61P17KAZ, Fa. Cis Biointernational],) in an aqueous EDTA-solution (100 mM EDTA, 500 mM KF, 0.2% (w/v) bovine serum albumin in 100 mM HEPES/NaOH pH 7.5).
The resulting mixture was incubated 2 h at 22° C. to allow the binding of the phosphorylated GST-MEK1 to the anti-GST-XL665 and the Eu-cryptate labelled anti-phospho-MEK 1/2 antibody. Subsequently the amount of Ser217/Ser221-phosphorylated substrate was evaluated by measurement of the resonance is energy transfer from the Eu-Cryptate-labelled anti-phospho-MEK antibody to the anti-GST-XL665. Therefore, the fluorescence emissions at 620 nm and 665 nm after excitation at 350 nm was measured in a HTRF reader, e.g. a Rubystar (BMG Labtechnologies, Offenburg, Germany) or a Viewlux (Perkin-Elmer). The ratio of the emissions at 665 nm and at […] was taken as the measure for the amount of phosphorylated substrate. The data were normalised (enzyme reaction without inhibitor=0% inhibition, all other assay components but no enzyme=100% inhibition).

A549 cells = experiment: A549 Cell Titer Glo (CTG) Proliferation Assay; type: cell-based; settings: A549 human non small cell lung cancer cells, mutant K-Ras G12S
Protocol: (§1) HCT116 cells [human colorectal cell line, expressing […]] were plated at a density of 3000 cells/well in 96 well black-clear bottom tissue culture plates (Costar 3603 black/clear bottom) in 100 μl/well DMEM medium (DMEM/Ham's F12) with 10% Fetal Bovine Serum (FBS) and stable Glutamine incubated at 37° C. Sister wells were plated in separate plate for time zero determination. All plates were incubated overnight at 37° C. Take down time zero plate: 100 μl/well CTG solution (Promega Cell Titer Glo solution) were added to time zero wells in sister plate; the plates were mixed for 2 min on orbital shaker to ensure cell lysis, incubated for 10 minutes, luminescence was read on VICTOR3 (Perkin Elmer). Twenty-four hours after cell seeding, test compounds were diluted in 50 μl medium and were added at a final concentration range from as high 10 μM to as low […] depending on the activities of the tested compounds in serial dilutions at a final DMSO concentration of 0.4%. Cells were incubated for 72 hours at 37° C. after addition of the test compound. Then, using a Promega Cell Titer Glo Luminescent® assay kit, 100 μl microliter lysis buffer containing of the enzyme luciferase and its substrate, luciferin mixture, were added to each well and incubated for 10 min at room temperature in the dark to stabilize luminescence signal. The samples were read on VICTOR3 (Perkin Elmer) using Luminescence protocol. The percentage change in cell growth was calculated by normalizing the measurements to the extinctions of the zero point plate (=0%) and the extinction of the untreated (0 μM) cells (=100%). The IC50 values were determined by means of a 4-parameter fit using the company's own software.
A549 cells [human non small cell lung cancer cell line, expressing mutant K-Ras G12S] were seeded at a density of 2000 cells/well in 96 well black-clear bottom tissue culture plates (Costar 3603 black/clear bottom) in 100 μl/well DMEM medium (DMEM/Ham's F12) with 10% Fetal Bovine Serum (FBS) and stable Glutamine incubated at 37° C. Cell Titer Glo proliferation assays for A549 cells were performed with the same protocol as described afore for HCT116 cells.

HCT116 cells = experiment: HCT116 Cell Titer Glo (CTG) Proliferation Assay; type: cell-based; settings: HCT116 human colorectal cells
Protocol: as §1

T1 sequence (Q02750 whole entry): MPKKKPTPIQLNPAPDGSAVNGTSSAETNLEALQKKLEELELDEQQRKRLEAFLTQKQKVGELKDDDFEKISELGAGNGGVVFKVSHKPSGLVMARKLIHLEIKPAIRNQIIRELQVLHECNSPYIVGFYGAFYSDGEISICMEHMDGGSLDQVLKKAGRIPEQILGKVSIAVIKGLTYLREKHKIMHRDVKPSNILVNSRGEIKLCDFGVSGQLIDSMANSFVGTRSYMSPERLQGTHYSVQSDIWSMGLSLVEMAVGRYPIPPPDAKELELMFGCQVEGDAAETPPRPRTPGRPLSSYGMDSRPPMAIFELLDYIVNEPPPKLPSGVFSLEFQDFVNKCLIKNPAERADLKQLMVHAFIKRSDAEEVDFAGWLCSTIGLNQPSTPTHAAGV

Row | Compound | IC50 (A375 cells; Homo sapiens, A-375, 96 h) [nM] | IC50 (MEK1) [nM] | IC50 (A549 cells; Homo sapiens, A549, 72 h) [nM] | IC50 (HCT116 cells; Homo sapiens, HCT-116, 72 h) [nM] | IC50 (A549 cells; 72 hours) [nM] | IC50 (HCT116 cells; 72 hours) [nM] | IC50 (A375 cells) [nM]
1 | Cc1cc(NS(=O)(=O)C2(CCO)CC2)c(Nc2ccc(I)cc2F)n(C)c1=O [Example 3, N-(2-(2-fluoro-4-iodophenylamino)-1,5-dimethyl-6-oxo-1,6-dihydropyridin-3-yl)-1-(2-hydroxyethyl)cyclopropane-1-sulfonamide] | 15 | 8.97 | – | – | – | – | –
2 | Cc1cc(NS(=O)(=O)C2CC2)c(Nc2ccc(I)cc2F)n(C)c1=O [Example 1, N-(2-(2-fluoro-4-iodophenylamino)-1,5-dimethyl-6-oxo-1,6-dihydropyridin-3-yl) cyclopropanesulfonamide] | – | 12.1 | – | – | – | – | –
3 | Cc1cc(NS(=O)(=O)C2(CC(O)CO)CC2)c(Nc2ccc(I)cc2F)n(C)c1=O (racemic) [Example 2, 1-(2,3-dihydroxypropyl)-N-(2-(2-fluoro-4-iodophenylamino)-1,5-dimethyl-6-oxo-1,6-dihydropyridin-3-yl)cyclopropane-1-sulfonamide] | 17 | 11.5 | – | – | – | – | –
4 | Cn1c(Nc2ccc(I)cc2F)c(NS(=O)(=O)C2CC2)ccc1=O [Example 5, N-{2-[(2-fluoro-4-iodophenyl)amino]-1-methyl-6-oxo-1,6-dihydropyridin-3-yl}cyclopropanesulfonamide] | 2.94 | 9.9 | 206 | 90.1 | – | – | –
5 | Cn1c(Nc2ccc(I)cc2F)c(NS(=O)(=O)C2(CC(O)CO)CC2)ccc1=O (single isomer, unassigned) [Example 6A, 1-(2,3-dihydroxypropyl)-N-{2-[(2-fluoro-4-iodophenyl)amino]-1-methyl-6-oxo-1,6-dihydropyridin-3-yl}cyclopropanesulfonamide] | – | 10.4 | – | – | 481 | 119 | 17.8

Now from value to compound:

Row | IC50 (A375 cells; Homo sapiens, A-375, 96 h) [nM] | IC50 (MEK1) [nM] | IC50 (A549 cells; Homo sapiens, A549, 72 h) [nM] | IC50 (HCT116 cells; Homo sapiens, HCT-116, 72 h) [nM] | IC50 (A549 cells; 72 hours) [nM] | IC50 (HCT116 cells; 72 hours) [nM] | IC50 (A375 cells) [nM] | Compound
6 | 22.9 | 38.2 | 730 | 360 | – | – | – | Cn1c(Nc2ccc(I)cc2F)c(NS(=O)(=O)C2(CCO)CC2)cc(F)c1=O [Example 10, N-{5-fluoro-2-[(2-fluoro-4-iodophenyl)amino]-1-methyl-6-oxo-1,6-dihydropyridin-3-yl}-1-(2-hydroxyethyl)cyclopropanesulfonamide]
7 | 4.7 | 8.36 | 254 | 117 | – | – | – | Cn1c(Nc2ccc(I)cc2F)c(NS(=O)(=O)C2(CCO)CC2)ccc1=O [Example 7, N-{2-[(2-fluoro-4-iodophenyl)amino]-1-methyl-6-oxo-1,6-dihydropyridin-3-yl}-1-(2-hydroxyethyl)cyclopropanesulfonamide]
8 | – | 16.6 | – | – | 203 | 54.5 | 7.74 | Cn1c(Nc2ccc(I)cc2F)c(NS(=O)(=O)C2(CC(O)CO)CC2)ccc1=O (single isomer, unassigned) [Example 6B, 1-(2,3-dihydroxypropyl)-N-{2-[(2-fluoro-4-iodophenyl)amino]-1-methyl-6-oxo-1,6-dihydropyridin-3-yl}cyclopropanesulfonamide]
9 | 25.5 | 21.1 | 700 | 300 | – | – | – | Cn1c(Nc2ccc(I)cc2F)c(NS(=O)(=O)C2(CC(O)CO)CC2)cc(F)c1=O (racemic) [Example 9, 1-(2,3-dihydroxypropyl)-N-{5-fluoro-2-[(2-fluoro-4-iodophenyl)amino]-1-methyl-6-oxo-1,6-dihydropyridin-3-yl}cyclopropanesulfonamide]
10 | 26.6 | 15.3 | 930 | 590 | – | – | – | Cn1c(Nc2ccc(I)cc2F)c(NS(=O)(=O)C2CC2)cc(F)c1=O [Example 8, N-{5-fluoro-2-[(2-fluoro-4-iodophenyl)amino]-1-methyl-6-oxo-1,6-dihydropyridin-3-yl}cyclopropanesulfonamide]
